Here are results for one compound from PMC8070004, “Isorhamnetin Ameliorates Dry Eye Disease via CFTR Activation in Mice” (International Journal of Molecular Sciences, 2021).

For one data set, the system named is intracellular cAMP. Kind of data set: cAMP assay in FRT cells. It counts as cell-based, rat. The conditions noted are these: 30 µM. Here is the method:
FRT cells grown on 96-well culture plates were washed three times with PBS at 37 °C and then incubated in induction buffer from a cAMP assay kit (cAMP-Glo Assay; Promega, Madison, WI, USA) at 37 °C containing 100 μM 3-isobutyl-1-methylxanthine (IBMX) for 10 min in the absence or presence of forskolin or isorhamnetin. Cytosolic cAMP was measured using the kit according to the manufacturer’s protocol.
(Changes in cAMP serve as a functional read-out for many G protein-coupled receptors.)

Data set [1] concerns conjunctival epithelial (ConjE) cells. Kind of data set: MTS cell viability assay in ConjE cells. It counts as cell-based, human. The conditions noted are these: 48 h; isorhamnetin 30 μM, Triton X-100 0.01%. The protocol:
Immortalized human CorE [47] and immortalized human ConjE (Innoprot, Bizkaia, Spain) cells were plated on 96-well microplates. After 24 h incubation, cells were treated with 30 μM isorhamnetin or 0.01% Triton X-100 and then they were incubated for two days. An equal amount of DMSO was added to the control. The culture medium and the compounds were changed every 12 h. To assess cell proliferation, after 48 h of incubation with the compound, the cells were reincubated with MTS for 1 h. The soluble formazan produced by cellular reduction of MTS was quantified by measuring the absorbance at 490 nm with Infinite M200 (Tecan, Grödig, Austria) microplate reader. MTS assay was done using CellTiter 96 AQueous One Solution Cell Proliferation Assay kit (Promega, Madison, WI, USA).
Background: Tetrazolium assays rely on reduction of a dye to a coloured formazan, in cell work by metabolically active cells.

The subject of a further data set is CD-1 mice. Briefly: Tear volume by phenol red thread tear test in normal CD-1 mice. The data set is classed as in vivo, mouse. The conditions noted are these: single 2.5 μL ocular delivery, 30 µM isorhamnetin. The protocol:
(§1) Tear volume was measured using phenol red threads (Zone-Quick, Oasis Medical, Glendora, CA, USA) by placing them in the lateral canthi of normal CD-1 or dry eye model-treated BL6 mice for 10 s using forceps. Tear volume was measured using a Vernier caliper as the length of thread wetting under a microscope. For normal CD-1 mice, serial measurements were done to evaluate compound pharmacodynamics compared to the vehicle after topical application of a single, 2.5-μL drop of compound formulations containing 20 μM forskolin, 30 μM isorhamnetin, or 20 μM CFTRinh-172 in PBS with 0.1% DMSO.

Data set [2] has as its system scopolamine-induced dry eye mice. Briefly: Scopolamine-induced dry eye mouse model (corneal fluorescein staining, tear volume). The settings on record: 30 µM, three times a day for 10 days. The data set is classed as in vivo. The protocol:
as §1
To assess corneal epithelial disruption, 5 μL of fluorescein dye (1%) were applied to the ocular surface of mice. Photographs of the eye were taken with a digital camera. Each cornea was scored from 0 to 5 according to the Oxford scheme.
Eight-week-old C57BL/6 mice were used for this experiment. Experimental dry eye was induced by subcutaneous injection of 0.5 mg/100 μL scopolamine hydrobromide (Sigma-Aldrich, St. Louis, MO, USA) three times a day with a standard desiccating environment created by placing the mice in a chamber with a continuous air flow (15 L/min) in a room at 25 °C with an ambient humidity of 12%. […]

Data set [3] concerns pro-inflammatory cytokine mRNA expression. Kind of data set: Real-time PCR of pro-inflammatory cytokines in cornea and conjunctiva of dry eye mice. It counts as in vivo, mouse. The protocol:
Eight-week-old C57BL/6 mice were used for this experiment. Experimental dry eye was induced by subcutaneous injection of 0.5 mg/100 μL scopolamine hydrobromide (Sigma-Aldrich, St. Louis, MO, USA) three times a day with a standard desiccating environment created by placing the mice in a chamber with a continuous air flow (15 L/min) in a room at 25 °C with an ambient humidity of 12%. Fourteen days after the initiation of experimental dry eye, the mice were treated or not with 5-μL drop of ophthalmic formulation (30 μM isorhamnetin in PBS with 0.1% DMSO) or vehicle three times a day. Eight days after the initiation of the formulation treatment, scopolamine injection was stopped. Ten days after the initiation of the formulation treatment, measurement of tear volume, corneal disruption, and relative mRNA level was performed.
The mRNA expressions of IL-1β, IL-6, IL-8, TNF-α, IFN-γ, and MMP-9 in cornea and conjunctiva of the dry eye model-treated mice were measured by qPCR. RNA was isolated using TRIzol reagent (Invitrogen, Carlsbad, CA, USA), and 1 μg of RNA was used to synthesize complementary DNA (cDNA) using RNA to cDNA EcoDryTM premix (TaKaRa, Shiga, Japan) according to the manufacturer’s protocol. The relative mRNA levels were measured in ViiA7 (Applied Biosystems, Foster City, CA, USA) using SYBR Green PCR Master Mix (Applied Biosystems). The primer sequences used were as follows: GAPDH, sense (5-[…]-3) and antisense (5-[…]-3), size of PCR product 155 base pairs; IL-1β, sense (5-[…]-3) and antisense (5-[…]-3), size of PCR product 199 base pairs; IL-6, sense (5-[…]-3) and antisense (5-[…]-3), size of PCR product 131 base pairs; IL-8, sense (5-[…]-3) and antisense (5-[…]-3), size of PCR product 190 base pairs; TNF-α, sense (5-[…]-3) and antisense (5-[…]-3), size of PCR product 166 base pairs; IFN-γ, sense (5-[…]-3) and antisense (5- […]-3), size of PCR product 156 base pairs; and MMP-9, sense (5-[…]-3) and antisense (5-[…]-3), size of PCR product 190 base pairs. The mRNA levels of the cytokines and MMP-9 were normalized to GAPDH levels and the fold-change in gene expression was determined by using 2^-ΔΔCT method.

For another data set, the target named is WT-CFTR (Homo sapiens, UniProt P13569). Kind of data set: Whole-cell patch clamp in CHO-K1 cells expressing WT-CFTR. The data set is classed as cell-based. Also on record: expressed in transfected cells; host or cells: CHO-K1. The conditions noted are these: 30 μM isorhamnetin; linear current/voltage relationship. Here is the method:
Whole-cell, patch clamp recordings were performed on CFTR-expressing CHO cells. The bath solution contained (in mM) 140 NMDG-Cl, 1 CaCl2, 1 MgCl2, 10 glucose, and 10 HEPES (pH 7.4). The pipette solution contained (in mM) 130 CsCl, 0.5 EGTA, 1 MgCl2, 1 Tris-ATP, and 10 HEPES (pH 7.2). […] Seal resistances were between 3 and 10 GΩ. After establishing the whole-cell configuration, CFTR was activated by forskolin and/or isorhamnetin. […] Recordings were made at room temperature using an Axopatch-200B (Axon Instruments, San Jose, CA, USA). Currents were digitized with a Digidata 1440A converter (Axon Instruments), filtered at 5 kHz, and sampled at 1 kHz.
For orientation: Patch clamp records ionic current or voltage across a cell membrane.

Setting [4] is: cornea of the dry eye mouse model.

Chain of WT-CFTR (P13569 whole entry): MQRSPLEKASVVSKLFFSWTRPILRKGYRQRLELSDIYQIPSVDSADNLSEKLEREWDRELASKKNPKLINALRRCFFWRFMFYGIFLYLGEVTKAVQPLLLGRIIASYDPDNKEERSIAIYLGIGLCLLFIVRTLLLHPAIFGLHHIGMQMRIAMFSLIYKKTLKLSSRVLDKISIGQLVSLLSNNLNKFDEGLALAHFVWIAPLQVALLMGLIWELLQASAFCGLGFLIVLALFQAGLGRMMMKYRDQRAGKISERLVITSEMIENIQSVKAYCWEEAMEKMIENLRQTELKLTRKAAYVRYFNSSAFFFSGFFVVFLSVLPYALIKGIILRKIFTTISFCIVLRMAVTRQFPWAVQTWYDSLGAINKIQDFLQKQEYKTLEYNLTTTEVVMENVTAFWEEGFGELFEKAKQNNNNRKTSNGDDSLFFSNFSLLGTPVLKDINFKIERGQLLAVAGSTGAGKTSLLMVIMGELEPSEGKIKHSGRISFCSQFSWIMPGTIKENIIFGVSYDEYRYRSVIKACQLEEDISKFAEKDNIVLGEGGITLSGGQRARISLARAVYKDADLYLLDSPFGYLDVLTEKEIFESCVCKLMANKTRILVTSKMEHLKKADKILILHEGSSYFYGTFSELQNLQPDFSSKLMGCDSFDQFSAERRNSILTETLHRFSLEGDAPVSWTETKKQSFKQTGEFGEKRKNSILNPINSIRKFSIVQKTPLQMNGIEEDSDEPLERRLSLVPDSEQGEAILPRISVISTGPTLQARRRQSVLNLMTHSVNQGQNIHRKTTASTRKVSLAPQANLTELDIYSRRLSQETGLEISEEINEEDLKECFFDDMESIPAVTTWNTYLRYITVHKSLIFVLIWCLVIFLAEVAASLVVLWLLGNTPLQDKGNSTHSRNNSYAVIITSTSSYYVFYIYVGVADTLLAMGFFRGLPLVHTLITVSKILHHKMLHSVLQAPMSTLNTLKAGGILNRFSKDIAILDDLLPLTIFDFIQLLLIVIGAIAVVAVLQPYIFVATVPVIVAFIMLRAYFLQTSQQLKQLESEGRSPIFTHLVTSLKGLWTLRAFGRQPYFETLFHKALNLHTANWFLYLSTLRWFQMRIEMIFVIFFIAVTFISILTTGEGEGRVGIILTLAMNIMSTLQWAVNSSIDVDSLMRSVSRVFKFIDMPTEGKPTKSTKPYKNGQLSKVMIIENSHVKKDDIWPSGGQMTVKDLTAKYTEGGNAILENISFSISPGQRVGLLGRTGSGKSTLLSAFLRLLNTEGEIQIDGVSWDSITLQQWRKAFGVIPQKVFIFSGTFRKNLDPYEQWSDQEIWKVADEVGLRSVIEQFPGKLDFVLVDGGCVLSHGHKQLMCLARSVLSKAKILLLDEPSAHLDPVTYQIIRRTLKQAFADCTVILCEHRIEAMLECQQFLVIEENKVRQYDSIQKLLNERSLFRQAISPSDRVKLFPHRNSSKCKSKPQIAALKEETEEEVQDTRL

Turning to `COc1cc(-c2oc3cc(O)cc(O)c3c(=O)c2O)ccc1O` [isorhamnetin], the “intracellular cAMP levels” value in the data set on intracellular cAMP was “did not alter”. Besides, the “cell viability (MTS), ConjE cells” value in data set [1] is “did not affect the cell viability”. Further, the tear volume entry in the data set with CD-1 mice is given as “significantly increased”. Further, in data set [2], the “corneal erosion (fluorescein staining)” value is “significantly reduced” and the “tear volume in dry eye mice” value is “increased”. Also, in data set [3] (setting [4]), the IL-1β expression result is given as “significantly reduced”, the IL-8 expression entry is on record as “significantly reduced” and the TNF-α expression result is “significantly reduced”. In addition, the “mRNA expression of cytokines in cornea and conjunctiva” value in data set [3] (dry eye mice treated with isorhamnetin for 10 days) is “strongly reduced”. The “CFTR Cl- currents (whole-cell)” value on WT-CFTR is given as “fully activated”.
